Data on seven compounds can be found in patent publication US12077503B2, “Substituted cyclic amides and their use as herbicides” (FMC CORPORATION, priority 2015, dated 2024).

Holding throughout (assay): Test G Pre-Emergence Protocol
What all share (assay type): in vivo

In assay [1] the test system is ivy-leaved morning glory (Ipomoea hederacea). The settings on record: Ipomoea, pre-emergence, 312 h, evaluated after 13 days; for pest or weed control at 15.625 g/ha: 15.625 g ai/ha, read-out: Morning-glory, Ivy-leaved damage rating (100=total damage to plant; 0=no damage to plant); for pest or weed control at 62.5 g/ha: 62.5 g ai/ha, 100=total damage to plant, 0=no damage to plant, read-out: plant damage rating, Morningglory, Ivy-leaved; for pest or weed control at 250 g/ha: 250 g ai/ha, read-out: Morningglory, Ivy-leaved damage rating (100=total damage to plant; 0=no damage to plant). The essentials: (§1)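 Herbicidal effect was rated 13 days post-application on a scale where 100 equals total damage. Spraying took place the day after sowing, using 15.625, 62.5 or 250 g/ha of compound in a 50:50 acetone/water solution with 0.5% Tween 20.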

Assay [2] relates to velvetleaf (Abutilon theophrasti). The following applies: Abutilon theophrasti, pre-emergence, 312 h, evaluated after 13 days; for pest or weed control at 15.625 g/ha: 15.625 g ai/ha; for pest or weed control at 15.625 g/ha / pest or weed control at 250 g/ha: read-out: Velvetleaf damage rating (100=total damage to plant; 0=no damage to plant); for pest or weed control at 62.5 g/ha: 62.5 g ai/ha, 100=total damage to plant, 0=no damage to plant, read-out: plant damage rating, Velvetleaf; for pest or weed control at 250 g/ha: 250 g ai/ha. The essentials:
as §1

In assay [3] the test system is barnyardgrass (Echinochloa crus-galli). The settings on record: Echinochloa crus-galli, pre-emergence, 312 h, evaluated after 13 days; for pest or weed control at 15.625 g/ha: 15.625 g ai/ha, read-out: Barnyard grass damage rating (100=total damage to plant; 0=no damage to plant); for pest or weed control at 62.5 g/ha: 62.5 g ai/ha, 100=total damage to plant, 0=no damage to plant, read-out: plant damage rating, Barnyardgrass; for pest or weed control at 250 g/ha: 250 g ai/ha, read-out: Barnyardgrass damage rating (100=total damage to plant; 0=no damage to plant). The essentials:
as §1

Another assay deals with corn (Zea mays). The following applies: Zea mays, pre-emergence, 312 h, evaluated after 13 days; for plant injury at 15.625 g/ha: 15.625 g ai/ha; for plant injury at 15.625 g/ha / plant injury at 250 g/ha: read-out: Corn damage rating (100=total damage to plant; 0=no damage to plant); for plant injury at 62.5 g/ha: 62.5 g ai/ha, 100=total damage to plant, 0=no damage to plant, read-out: plant damage rating, Corn; for plant injury at 250 g/ha: 250 g ai/ha. The essentials:
as §1

Assay [4] relates to redroot pigweed (Amaranthus retroflexus). The following applies: Amaranthus retroflexus, pre-emergence, 312 h, evaluated after 13 days; for pest or weed control at 15.625 g/ha: 15.625 g ai/ha; for pest or weed control at 15.625 g/ha / pest or weed control at 250 g/ha: read-out: Pigweed, Redroot damage rating (100=total damage to plant; 0=no damage to plant); for pest or weed control at 62.5 g/ha: 62.5 g ai/ha, 100=total damage to plant, 0=no damage to plant, read-out: plant damage rating, Pigweed, Redroot; for pest or weed control at 250 g/ha: 250 g ai/ha. The essentials: as §1

Assay [5] concerns giant foxtail (Setaria faberi). The following applies: Setaria faberi, pre-emergence, 312 h, evaluated after 13 days; for pest or weed control at 15.625 g/ha: 15.625 g ai/ha; for pest or weed control at 15.625 g/ha / pest or weed control at 250 g/ha: read-out: Foxtail, Giant damage rating (100=total damage to plant; 0=no damage to plant); for pest or weed control at 62.5 g/ha: 62.5 g ai/ha, 100=total damage to plant, 0=no damage to plant, read-out: plant damage rating, Foxtail, Giant; for pest or weed control at 250 g/ha: 250 g ai/ha. The essentials: as §1

As for `CN1C[C@@H](c2ccc(C(F)(F)F)cc2)[C@H](C(=O)Nc2ccno2)C1=O` (racemic) [Compound 1513], in assay [1], the pest or weed control at 15.625 g/ha worked out at 0%, the pest or weed control at 62.5 g/ha was found to be 0% and the pest or weed control at 250 g/ha was 0%. Besides, in assay [2], the pest or weed control at 15.625 g/ha was 0%, the pest or weed control at 62.5 g/ha worked out at 0% and the pest or weed control at 250 g/ha stood at 0%. In assay [3], the pest or weed control at 15.625 g/ha was determined as 0%, the pest or weed control at 62.5 g/ha stood at 0% and the pest or weed control at 250 g/ha was 0%. Further, in the assay with corn (Zea mays), the plant injury at 15.625 g/ha was 0%, the plant injury at 62.5 g/ha came to 0% and the plant injury at 250 g/ha amounted to 0%. In addition, in assay [4], the pest or weed control at 15.625 g/ha is 0%, the pest or weed control at 62.5 g/ha was determined as 0% and the pest or weed control at 250 g/ha worked out at 0%. Moreover, in assay [5], the pest or weed control at 15.625 g/ha was 0%, the pest or weed control at 62.5 g/ha was found to be 0% and the pest or weed control at 250 g/ha was determined as 0%.

On to `CN1C[C@@H](c2ccc(C(F)(F)F)cc2)[C@H](C(=O)Nc2ncc(Br)cn2)C1=O` (racemic) [Compound 1514], for which, in assay [1], the pest or weed control at 15.625 g/ha came out at 0%, the pest or weed control at 62.5 g/ha stood at 0% and the pest or weed control at 250 g/ha was found to be 0%. Also, in assay [2], the pest or weed control at 15.625 g/ha amounted to 0%, the pest or weed control at 62.5 g/ha is 0% and the pest or weed control at 250 g/ha is 0%. In assay [3], the pest or weed control at 15.625 g/ha stood at 0%, the pest or weed control at 62.5 g/ha worked out at 0% and the pest or weed control at 250 g/ha was 0%. For the same compound, in the assay on corn (Zea mays), the plant injury at 15.625 g/ha is 0%, the plant injury at 62.5 g/ha is 0% and the plant injury at 250 g/ha amounted to 0%. In assay [4], the pest or weed control at 15.625 g/ha came out at 0%, the pest or weed control at 62.5 g/ha was found to be 0% and the pest or weed control at 250 g/ha turned out to be 0%. Also, in assay [5], the pest or weed control at 15.625 g/ha was 0%, the pest or weed control at 62.5 g/ha amounted to 0% and the pest or weed control at 250 g/ha was 0%.

For the compound `Cc1cscc1NC(=O)[C@@H]1C(=O)N(C)C[C@H]1c1ccc(C(F)(F)F)cc1` (racemic) [Compound 1526], in assay [1], the pest or weed control at 15.625 g/ha is 10% and the pest or weed control at 250 g/ha is 0%. Also, in assay [2], the pest or weed control at 15.625 g/ha came out at 0%, the pest or weed control at 62.5 g/ha is 0% and the pest or weed control at 250 g/ha is 0%. In assay [3], the pest or weed control at 15.625 g/ha turned out to be 20%, the pest or weed control at 62.5 g/ha worked out at 60% and the pest or weed control at 250 g/ha came to 80%. In the assay with corn (Zea mays), the plant injury at 15.625 g/ha turned out to be 0%, the plant injury at 62.5 g/ha stood at 0% and the plant injury at 250 g/ha was 10%. Besides, in assay [4], the pest or weed control at 15.625 g/ha stood at 0%, the pest or weed control at 62.5 g/ha came out at 50% and the pest or weed control at 250 g/ha was determined as 70%. Further, in assay [5], the pest or weed control at 15.625 g/ha is 30%, the pest or weed control at 62.5 g/ha was 50% and the pest or weed control at 250 g/ha is 90%.

For the compound `CN1C[C@@H](c2ccc(C(F)(F)F)cc2)[C@H](C(=O)Nc2ncc(C#N)s2)C1=O` (racemic) [Compound 1528], in assay [1], the pest or weed control at 15.625 g/ha is 0%, the pest or weed control at 62.5 g/ha was 0% and the pest or weed control at 250 g/ha worked out at 0%. Also, in assay [2], the pest or weed control at 15.625 g/ha stood at 0%, the pest or weed control at 62.5 g/ha worked out at 0% and the pest or weed control at 250 g/ha is 0%. In assay [3], the pest or weed control at 15.625 g/ha was found to be 0%, the pest or weed control at 62.5 g/ha was determined as 0% and the pest or weed control at 250 g/ha amounted to 0%. In addition, in the assay on corn (Zea mays), the plant injury at 15.625 g/ha stood at 0%, the plant injury at 62.5 g/ha was determined as 0% and the plant injury at 250 g/ha was found to be 0%. In assay [4], the pest or weed control at 15.625 g/ha amounted to 0%, the pest or weed control at 62.5 g/ha came to 0% and the pest or weed control at 250 g/ha was 0%. In assay [5], the pest or weed control at 15.625 g/ha stood at 0%, the pest or weed control at 62.5 g/ha was determined as 0% and the pest or weed control at 250 g/ha amounted to 0%.

On to `Cc1cc(NC(=O)[C@@H]2C(=O)N(C)C[C@H]2c2ccc(C(F)(F)F)cc2)n[nH]1` (racemic) [Compound 1532], for which, in assay [1], the pest or weed control at 15.625 g/ha is 0%, the pest or weed control at 62.5 g/ha turned out to be 0% and the pest or weed control at 250 g/ha came out at 0%. Further, in assay [2], the pest or weed control at 15.625 g/ha came out at 0%, the pest or weed control at 62.5 g/ha is 0% and the pest or weed control at 250 g/ha stood at 0%. For the same compound, in assay [3], the pest or weed control at 15.625 g/ha was found to be 0%, the pest or weed control at 62.5 g/ha is 30% and the pest or weed control at 250 g/ha was determined as 0%. For the same compound, in the assay on corn (Zea mays), the plant injury at 15.625 g/ha worked out at 0%, the plant injury at 62.5 g/ha is 0% and the plant injury at 250 g/ha came to 0%. For the same compound, in assay [4], the pest or weed control at 15.625 g/ha turned out to be 0%, the pest or weed control at 62.5 g/ha was determined as 0% and the pest or weed control at 250 g/ha worked out at 0%. In assay [5], the pest or weed control at 15.625 g/ha came to 100%, the pest or weed control at 62.5 g/ha was 100% and the pest or weed control at 250 g/ha is 0%.

With `CN1C[C@@H](c2ccc(C(F)(F)F)cc2)[C@H](C(=O)Nc2cc[nH]n2)C1=O` (racemic) [Compound 1533], in assay [1], the pest or weed control at 15.625 g/ha came out at 0%, the pest or weed control at 62.5 g/ha is 0% and the pest or weed control at 250 g/ha was determined as 0%. In assay [2], the pest or weed control at 15.625 g/ha worked out at 0%, the pest or weed control at 62.5 g/ha was determined as 0% and the pest or weed control at 250 g/ha was determined as 0%. Moreover, in assay [3], the pest or weed control at 15.625 g/ha is 0%, the pest or weed control at 62.5 g/ha worked out at 0% and the pest or weed control at 250 g/ha is 0%. Also, in the assay with corn (Zea mays), the plant injury at 15.625 g/ha is 0%, the plant injury at 62.5 g/ha worked out at 0% and the plant injury at 250 g/ha is 0%. Further, in assay [4], the pest or weed control at 15.625 g/ha was determined as 0%, the pest or weed control at 62.5 g/ha came to 0% and the pest or weed control at 250 g/ha worked out at 0%. Moreover, in assay [5], the pest or weed control at 62.5 g/ha turned out to be 0% and the pest or weed control at 250 g/ha amounted to 0%.

For `CN1C[C@@H](c2ccc(C(F)(F)F)cc2)[C@H](C(=O)Nc2nc[nH]n2)C1=O` (racemic) [Compound 1534], in assay [1], the pest or weed control at 15.625 g/ha stood at 0%, the pest or weed control at 62.5 g/ha was found to be 0% and the pest or weed control at 250 g/ha was 0%. Also, in assay [2], the pest or weed control at 15.625 g/ha was 0%, the pest or weed control at 62.5 g/ha was found to be 0% and the pest or weed control at 250 g/ha is 0%. Further, in assay [3], the pest or weed control at 15.625 g/ha came out at 0%, the pest or weed control at 62.5 g/ha stood at 0% and the pest or weed control at 250 g/ha was determined as 0%. Moreover, in the assay with corn (Zea mays), the plant injury at 15.625 g/ha is 0%, the plant injury at 62.5 g/ha stood at 0% and the plant injury at 250 g/ha is 0%. In assay [4], the pest or weed control at 15.625 g/ha worked out at 0%, the pest or weed control at 62.5 g/ha stood at 0% and the pest or weed control at 250 g/ha amounted to 0%. For the same compound, in assay [5], the pest or weed control at 15.625 g/ha was 0%, the pest or weed control at 62.5 g/ha was found to be 0% and the pest or weed control at 250 g/ha is 0%.
